Source: patent US10508085B2, “Compounds and methods for IDO and TDO modulation, and indications therefor” (Plexxikon Inc., priority 2016, dated 2019)

Tests used:
[1] = biological target: T1, Human Tryptophan 2,3-dioxygenase (TDO) (Homo sapiens, UniProt P48775); assay: Human TDO enzymatic assay (kynurenine level); type: biochemical; conditions: 1 nM TDO, 350 μM L-Trp; geometric mean; read-out: TDO GMean: IC50 (μM) (Biochemical Assay)
T1 construct: His tag (N); made in house; host or cells: E. coli
T1 sequence (P48775 whole entry): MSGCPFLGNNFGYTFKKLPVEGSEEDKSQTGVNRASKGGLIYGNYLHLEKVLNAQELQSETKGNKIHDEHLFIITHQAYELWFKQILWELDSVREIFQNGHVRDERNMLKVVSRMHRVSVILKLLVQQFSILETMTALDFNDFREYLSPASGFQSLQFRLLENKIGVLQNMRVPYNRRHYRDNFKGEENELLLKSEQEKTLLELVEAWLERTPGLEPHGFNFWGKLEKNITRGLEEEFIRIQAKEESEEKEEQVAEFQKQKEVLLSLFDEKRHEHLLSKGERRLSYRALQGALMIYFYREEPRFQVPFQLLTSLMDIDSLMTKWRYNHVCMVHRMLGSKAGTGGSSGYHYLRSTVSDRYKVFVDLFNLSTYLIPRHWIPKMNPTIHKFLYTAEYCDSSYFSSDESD
How it was run: (§1)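 Reactions were stopped with TCA, converting N-formylkynurenine to kynurenine for quantitation, with IC50 by nonlinear regression. IDO: 6 nM enzyme, 10 μM L-Trp, 20 min RT. TDO: 1 nM enzyme, 350 μM L-Trp, 70 min RT, both in pH 6.5 buffer.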

[2] = biological target: T2, Human Indoleamine 2,3-dioxygenase (IDO) (Homo sapiens, UniProt P14902); assay: Human IDO enzymatic assay (kynurenine level); type: biochemical; conditions: 6 nM IDO, 10 μM L-Trp; geometric mean; read-out: IDO1 GMean: IC50 (μM) (Biochemical Assay)
T2 construct: His tag (N); made in house; host or cells: E. coli
T2 sequence (P14902 whole entry): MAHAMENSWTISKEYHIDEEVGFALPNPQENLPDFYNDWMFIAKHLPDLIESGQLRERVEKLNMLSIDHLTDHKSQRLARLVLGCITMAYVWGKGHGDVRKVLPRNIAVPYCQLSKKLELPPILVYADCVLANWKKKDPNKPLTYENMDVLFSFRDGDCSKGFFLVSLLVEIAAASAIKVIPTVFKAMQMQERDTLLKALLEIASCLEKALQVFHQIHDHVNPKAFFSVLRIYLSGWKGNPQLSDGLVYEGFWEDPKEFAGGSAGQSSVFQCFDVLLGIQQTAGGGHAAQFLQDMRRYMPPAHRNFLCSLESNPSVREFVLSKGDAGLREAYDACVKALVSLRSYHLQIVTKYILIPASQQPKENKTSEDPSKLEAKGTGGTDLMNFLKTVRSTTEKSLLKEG
How it was run: as §1

[3] = biological target: T3, human IDO (IDO1-expressing HEK293 cells) (Homo sapiens, UniProt P14902); assay: Cell based kynurenine assay, IDO1-expressing HEK293 cell clones; conditions: IDO1-expressing HEK293 cells, 24 hours incubation; geometric mean; read-out: HEK293 IDO1 Kynurenine GMean IC50 (μM) (Cellular Assay)
T3 construct: expressed in transfected cells
T3 sequence (P14902 whole entry): as above
How it was run: (§2)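 IC50 values come from nonlinear regression of kynurenine reduction in supernatants of human IDO1- or TDO-expressing HEK293 cells incubated 24 h with serially diluted compounds, normalised to cell and media-only controls containing 0.2% DMSO.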

[4] = biological target: T4, human TDO (TDO-expressing HEK293 cells) (Homo sapiens, UniProt P48775); assay: Cell based kynurenine assay, TDO-expressing HEK293 cell clones; conditions: TDO-expressing HEK293 cells, 24 hours incubation; geometric mean; read-out: HEK293 TDO Kynurenine GMean IC50 (μM) (Cellular Assay)
T4 construct: expressed in transfected cells
T4 sequence (P48775 whole entry): as the sequence (P48775 whole entry) above
How it was run: as §2

Structure (SMILES)	IC50 [1]	IC50 [2]	IC50 [3]	IC50 [4]
CNC(=O)N1CC2CCC(C1)C2CC(O)c1cc(Cl)cc2cn[nH]c12 (stereo not drawn) [Compound P-0127, 8-(2-(5-chloro-1H-indazol-7-yl)-2-hydroxyethyl)-N-methyl-3-azabicyclo[3.2.l]octane-3-carboxamide]	0.0001 to 10 µM	0.0001 to 10 µM	0.0001 to 10 µM	0.0001 to 10 µM
CC(=O)N1CCC(C(F)(F)C(O)c2c(F)c(Cl)cc3cn[nH]c23)CC1 (stereo not drawn) [Compound P-0128, 1-(4-(2-(5-chloro-6-fluoro-1H-indazol-7-yl)-1,1-difluoro-2-hydroxyethyl)piperidin-1-yl)ethan-l-one]	0.0001 to 10 µM	0.0001 to 10 µM	0.0001 to 10 µM	0.0001 to 10 µM
CS(=O)(=O)N1C[C@H]2CC[C@@H](C1)[C@@H]2C(F)(F)C(O)c1cc(Cl)cc2cn[nH]c12 (stereo partly drawn) [Compound P-0132, 1-(5-chloro-1H-indazol-7-yl)-2,2-difluoro-2-((1R,5S,8r)-3-(methylsulfonyl)-3-azabicyclo[3.2.l]octan-8-yl)ethan-l-ol]	0.0001 to 10 µM	0.0001 to 10 µM	0.0001 to 10 µM	0.0001 to 10 µM
CNC(=O)N1CCC(C2(C(O)c3cc(Cl)cc4cn[nH]c34)CC2)CC1 (stereo not drawn) [Compound P-0134, 4-(1-((5-chloro-1H-indazol-7-yl)(hydroxy)methyl)cyclopropyl)-N-methylpiperidine-1-carboxamide]	0.0001 to 10 µM	0.0001 to 10 µM	0.0001 to 10 µM	0.0001 to 10 µM
OC(c1cc(Cl)c(F)c2cn[nH]c12)C12CCC(CC1)CC2 (stereo not drawn) [Compound P-0135, bicyclo[2.2.2]octan-1-yl(5-chloro-4-fluoro-1H-indazol-7-yl)methanol]	0.0001 to 10 µM	0.0001 to 10 µM	0.0001 to 10 µM	0.0001 to 10 µM
COC12CCC(C(O)c3cc(Cl)cc4cn[nH]c34)(CC1)CC2 (stereo not drawn) [Compound P-0136, (5-chloro-1H-indazol-7-yl)(4-methoxybicyclo[2.2.2]octan-1-yl)methanol]	0.0001 to 10 µM	0.0001 to 10 µM	0.0001 to 10 µM	0.0001 to 10 µM
COC12CCC(C(O)c3c(F)c(Cl)cc4cn[nH]c34)(CC1)CC2 (stereo not drawn) [Compound P-0137, (5-chloro-6-fluoro-1H-indazol-7-yl)(4-methoxybicyclo[2.2.2]octan-1-yl)methanol]	0.0001 to 10 µM	0.0001 to 10 µM	0.0001 to 10 µM	0.0001 to 10 µM
CC(=O)N1C[C@H]2CC[C@@H](C1)[C@H]2C(F)(F)C(O)c1c(F)c(Cl)cc2cn[nH]c12 (stereo partly drawn) [Compound P-0138, 1-((1R,5S,8s)-8-(2-(5-chloro-6-fluoro-1H-indazol-7-yl)-1,1-difluoro-2-hydroxyethyl)-3-azabicyclo[3.2.l]octan-3-yl)ethan-l-one]	0.0001 to 10 µM	0.0001 to 10 µM	0.0001 to 10 µM	0.0001 to 10 µM
CC(=O)N1C[C@H]2CC[C@@H](C1)[C@@H]2C(F)(F)C(O)c1c(F)c(Cl)cc2cn[nH]c12 (stereo partly drawn) [Compound P-0139, 1-((1R,5S,8r)-8-(2-(5-chloro-6-fluoro-1H-indazol-7-yl)-1,1-difluoro-2-hydroxyethyl)-3-azabicyclo[3.2.l]octan-3-yl)ethan-l-one]	0.0001 to 10 µM	0.0001 to 10 µM	0.0001 to 10 µM	0.0001 to 10 µM
COC(=O)N1CCC(C(F)(F)C(O)c2cc(Cl)cc3cn[nH]c23)CC1 (stereo not drawn) [Compound P-0141, methyl 4-(2-(5-chloro-1H-indazol-7-yl)-1,1-difluoro-2-hydroxyethyl)piperidine-1-carboxylate]	0.0001 to 10 µM	0.0001 to 10 µM	0.0001 to 10 µM	0.0001 to 10 µM
CNC(=O)N1CCC(C(F)(F)C(O)c2cc(Cl)cc3cn[nH]c23)CC1 (stereo not drawn) [Compound P-0142, 4-(2-(5-chloro-1H-indazol-7-yl)-1,1-difluoro-hydroxyethyl)-N-methylpiperidine-1-carboxamide]	0.0001 to 10 µM	0.0001 to 10 µM	0.0001 to 10 µM	0.0001 to 10 µM
NC(=O)N1CCC(C(F)(F)C(O)c2cc(Cl)cc3cn[nH]c23)CC1 (stereo not drawn) [Compound P-0144, 4-(2-(5-chloro-1H-indazol-7-yl)-1,1-difluoro-2-hydroxyethyl)piperidine-1-carboxamide]	0.0001 to 10 µM	0.0001 to 10 µM	0.0001 to 10 µM	0.0001 to 10 µM
CC1(C(O)c2cc(Cl)cc3[nH]ncc23)CCCCC1 (stereo not drawn) [Compound P-0145, (6-chloro-1H-indazol-4-yl)(1-methylcyclohexyl)methanol]	0.0001 to 10 µM	0.0001 to 10 µM	> 10 µM	0.0001 to 10 µM
CCC(=O)N1CCC(C(F)(F)C(O)c2cc(Cl)cc3cn[nH]c23)CC1 (stereo not drawn) [Compound P-0147, 1-(4-(2-(5-chloro-1H-indazol-7-yl)-1,1-difluoro-2-hydroxyethyl)piperidin-1-yl)propan-l-one]	0.0001 to 10 µM	0.0001 to 10 µM	0.0001 to 10 µM	0.0001 to 10 µM

Now from value to compound:

IC50 [1]	IC50 [2]	IC50 [3]	IC50 [4]	Structure (SMILES)
0.0001 to 10 µM	0.0001 to 10 µM	0.0001 to 10 µM	0.0001 to 10 µM	CC1(C(O)c2c(F)c(Cl)c(F)c3cn[nH]c23)CCCCC1 (stereo not drawn) [Compound P-0123, (5-chloro-4,6-difluoro-1H-indazol-7-yl)(1-methylcyclohexyl)methanol]
0.0001 to 10 µM	0.0001 to 10 µM	0.0001 to 10 µM	0.0001 to 10 µM	CC(=O)N1CCC(C(F)(F)C(O)c2c3c(cc4cn[nH]c24)CC3)CC1 (stereo not drawn) [Compound P-0129, 1-(4-(2-(5,6-dihydro-1H-cyclobuta[f]indazol-7-yl)-1,1-difluoro-2-hydroxyethyl)piperidin-1-yl)ethan-l-one]
0.0001 to 10 µM	0.0001 to 10 µM	0.0001 to 10 µM	0.0001 to 10 µM	CC(=O)N1CCC(C2(C(O)c3cc(Cl)cc4cn[nH]c34)CC2)CC1 (stereo not drawn) [Compound P-0130, 1-(4-(1-((5-chloro-1H-indazol-7-yl)(hydroxy)methyl)cyclopropyl)piperidin-1-yl)ethan-l-one]
0.0001 to 10 µM	0.0001 to 10 µM	0.0001 to 10 µM	0.0001 to 10 µM	CS(=O)(=O)N1C[C@H]2CC[C@@H](C1)[C@H]2C(F)(F)C(O)c1cc(Cl)cc2cn[nH]c12 (stereo partly drawn) [Compound P-0131, 1-(5-chloro-1H-indazol-7-yl)-2,2-difluoro-2-((1R,5S,8s)-3-(methylsulfonyl)-3-azabicyclo[3.2.l]octan-8-yl)ethan-l-ol]
0.0001 to 10 µM	0.0001 to 10 µM	0.0001 to 10 µM	0.0001 to 10 µM	OC(c1cc(Cl)cc2cn[nH]c12)C12CCC(O)(CC1)CC2 (stereo not drawn) [Compound P-0133, 4-((5-chloro-1H-indazol-7-yl)(hydroxy)methyl)bicyclo[2.2.2]octan-1-ol]
0.0001 to 10 µM	0.0001 to 10 µM	0.0001 to 10 µM	0.0001 to 10 µM	O=C(C1CC1)N1CCC(C(F)(F)C(O)c2cc(Cl)cc3cn[nH]c23)CC1 (stereo not drawn) [Compound P-0143, (4-(2-(5-chloro-1H-indazol-7-yl)-1,1-difluoro-2-hydroxyethyl)piperidin-1-yl)(cyclopropyl)methanone]
0.0001 to 10 µM	0.0001 to 10 µM	> 10 µM	0.0001 to 10 µM	OC(c1cc(Cl)cc2[nH]ncc12)C12CCC(CC1)CC2 (stereo not drawn) [Compound P-0146, bicyclo[2.2.2]octan-1-yl(6-chloro-1H-indazol-4-yl)methanol]
